≈ marks a conversion by molar mass, not a printed value.

Data set [1] can be described thus: Kinetic parameters after oral administration (comparison). In kind it is in vivo, rat. The method, then: Comparison with kinetic parameters after oral administration of 1 mg/kg: […]
The nature of a further data set: Solubility in water. In kind it is physicochemical. Conditions: at 21° C. The text has this:
For treating disorders of the skin it Is desirable to provide the active pharmaceutical ingredient in a pharmaceutical preparation suitable for topical application.

For the compound `O=C(Nc1c(Cl)cncc1Cl)c1ccc(OC(F)F)c(OCC2CC2)c1` [roflumilast, N-(3,5-dichloropyrid-4-yl)-3-cyclopropylmethoxy-4-difluoromethoxybenzamide], the “excretion with the urine” value in data set [1] (oral administration) was 18.4 % of the dose. Also, in data set [1] (oral administration of 1 mg/kg), the “AUC(0-24 h)” value came out at 3.10 mg equiv./l×h and the Cmax is 0.225 mg equiv./l. For the same compound, in “Solubility in water”, the concentration in solution (solubility) came to 0.53 µg/mL (≈ 1.31 µM).

The record behind these values is patent publication US20060084684A1, “Topically applicable pharmaceutical preparation” (Altana Pharma AG, priority 2002, published 2006).
